# Experimental data reported in US4175081A, “5-Substituted thiadiazole ureas” (priority 1977, dated 1979).
# Assays:
# Turnip (TP) [1] = assay: Pre-emergence herbicide test; format: in vivo, Brassica sp.; conditions: Brassica rapa, pre-emergence, 336 h, two weeks after treatment
# Outline: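 Turnip (Brassica sp.) seeds were surface sown in 3' plastic pots of potting soil, covered with a thin layer of screened soil, and sub-irrigated in greenhouse trays. Pots were seeded one day ahead of treatment, sprayed pre-emergence under a hood with a fixed nozzle and moving belt, then kept in the greenhouse.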
# Amaranth pigweed (PW) [2] = assay: Pre-emergence herbicide test; format: in vivo, Amaranthus retroflexus; conditions: 336 h, two weeks after treatment
# Outline: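 Pigweed was surface-seeded in potted soil one day before spraying at 8 lbs compound per acre, or 4 lbs/acre, in 38 gallons per acre. Pots were kept in the greenhouse with sub-irrigation only; injury or control was rated visually two weeks after treatment.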
# Bean (BN) [3] = assay: Pre-emergence herbicide test; format: in vivo, Phaseolus vulgaris var. Black Valentine; conditions: Phaseolus vulgaris, 336 h, two weeks after treatment
# Outline: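 Black Valentine bean was seeded in potting soil one day before spraying. Compound was applied pre-emergence at 8 lbs/acre (also 4 lbs/acre) in 38 gallons per acre. Plants were sub-irrigated and injury or control was rated visually after two weeks.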
# Barnyard grass (BG) [4] = assay: Post-emergence herbicide test; format: in vivo; conditions: Echinochloa crus-galli, 336 h, two weeks after treatment
# Outline: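 Greenhouse pot-grown barnyard grass seedlings sprayed post-emergence at 8 lbs active compound per acre (some at 4 lbs/acre) in 38 gallons per acre, then sub-irrigated. Injury or control rated visually two weeks after treatment.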
# Johnson grass (JG) [5] = assay: Pre-emergence herbicide test; format: in vivo, Sorgum helepense; conditions: Sorghum halepense, 336 h, two weeks after treatment
# Outline: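 Pots seeded one day before spraying; compound applied pre-emergence at 8 lbs/acre (or 4 lbs/acre) in 38 gallons/acre spray volume. Sub-irrigated in greenhouse; injury/control rated visually two weeks after treatment.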
# Cotton (CT) [6] = assay: Pre-emergence herbicide test; format: in vivo, Gossypium hirsutum var. DPL smooth leaf; conditions: Gossypium hirsutum, 336 h, two weeks after treatment
# Outline: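 Crop and weed species seeded one day before treatment, then sprayed pre-emergence at 8 lbs actual compound per acre (also 4 lbs/acre formulations) in 38 gallons per acre. Pots kept in greenhouse with sub-irrigation only; injury or control visually rated two weeks after treatment.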
# Crabgrass (CG) [7] = assay: Pre-emergence herbicide test; format: in vivo, Digitaria sanquinalis; conditions: Digitaria sanguinalis, pre-emergence, 336 h, two weeks after treatment
# Outline: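 Crabgrass (Digitaria sanquinalis) was surface seeded in 3' plastic pots of potting soil, covered with screened soil, and watered by sub-irrigation in greenhouse trays. Pots were seeded one day before spraying in a hood with a moving belt and fixed nozzle. Plants stayed in the greenhouse on sub-irrigation, and pre-emergence control was rated visually two weeks after treatment.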
# Bean (BN) [8] = assay: Post-emergence herbicide test; format: in vivo, Phaseolus vulgaris var. Black Valentine; conditions: Phaseolus vulgaris, post-emergence, 336 h, two weeks after treatment
# Outline: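 Snapbean (Phaseolus vulgaris var. Black Valentine) was tested post-emergence. Four seeds were sown in 3' plastic pots of potting soil at a depth equal to the seed diameter, then sub-irrigated in greenhouse trays. Planting dates were staggered so plants were sprayed once primary leaves had expanded, with the growing point at the primary leaf nodes.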
# Barnyard grass (BG) [9] = assay: Pre-emergence herbicide test; format: in vivo; conditions: Echinochloa crus-galli, 336 h, two weeks after treatment
# Outline: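 Barnyard grass surface-seeded in potting soil and sprayed pre-emergence one day after seeding, at 8 or 4 lb compound/acre in 38 gal/acre spray volume. Pots kept in greenhouse with sub-irrigation only; injury or control rated visually two weeks after treatment.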
# Amaranth pigweed (PW) [10] = assay: Post-emergence herbicide test; format: in vivo, Amaranthus retroflexus; conditions: 336 h, two weeks after treatment
# Outline: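 Pot-grown pigweed was sprayed post-emergence at the 1–2 true-leaf stage with compound at rates equivalent to 8 lbs per acre (formulations also prepared for 4 lbs/acre) in 38 gallons per acre, using a hood with fixed nozzle. Plants were sub-irrigated in the greenhouse, and injury or control was rated visually two weeks after treatment.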
# Crabgrass (CG) [11] = assay: Post-emergence herbicide test; format: in vivo, Digitaria sanquinalis; conditions: Digitaria sanguinalis, post-emergence, 336 h, two weeks after treatment
# Outline: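 Crabgrass (Digitaria sanquinalis) was surface seeded individually in 3' plastic pots of potting soil, covered with screened soil, and watered by sub-irrigation in greenhouse trays. Planting was staggered so seedlings reached the target stage together. Post-emergence sprays were applied in a hood with a removable belt and fixed nozzle, and control was visually rated two weeks after treatment.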
# Corn (CN) [12] = assay: Pre-emergence herbicide test; format: in vivo; conditions: Zea mays, 336 h, two weeks after treatment
# Outline: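 Four corn seeds per pot, sown at seed-diameter depth one day before spraying, got soil surface treatment at 8 lbs/acre (4 lbs/acre formulations also prepared) in 38 gallons/acre. Pots were greenhouse-held with sub-irrigation only. Injury or control was scored visually two weeks after treatment.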
# Corn (CN) [13] = assay: Post-emergence herbicide test; format: in vivo; conditions: Zea mays, 336 h, two weeks after treatment
# Outline: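 Greenhouse seedlings grown in potting soil and sprayed post-emergence at 8 lbs compound/acre (formulations also made for 4 lbs/acre) in 38 gallons/acre spray volume. Watering by sub-irrigation only. Injury or control rated visually two weeks after treatment.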
# Cotton (CT) [14] = assay: Post-emergence herbicide test; format: in vivo, Gossypium hirsutum var. DPL smooth leaf; conditions: Gossypium hirsutum, post-emergence, 336 h, two weeks after treatment
# Outline: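 Cotton (Gossypium hirsutum var. DPL smooth leaf) was grown in 3' plastic pots of potting soil, four seeds per pot, planted at a depth equal to the seed diameter and watered by sub-irrigation. At the stage of expanded cotyledons with the first true leaf 1' long, plants were sprayed post-emergence in a hood with a fixed nozzle over a moving belt. Percent control was rated visually two weeks later.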
# Johnson grass (JG) [15] = assay: Post-emergence herbicide test; format: in vivo, Sorgum helepense; conditions: Sorghum halepense, 336 h, two weeks after treatment
# Outline: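 Greenhouse pot-grown seedlings sprayed post-emergence at 8 lbs compound per acre (some at 4 lbs/acre) in 38 gallons per acre spray volume. Sub-irrigated thereafter. Injury/control rated visually two weeks after treatment.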
# Turnip (TP) [16] = assay: Post-emergence herbicide test; format: in vivo, Brassica sp.; conditions: Brassica rapa, post-emergence, 336 h, two weeks after treatment
# Outline: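 A greenhouse post-emergence herbicide test on turnip. Seeds were sown on the surface of potting soil in 3' plastic pots, lightly covered with screened soil and watered from below. Planting was timed so seedlings had 1 or 2 true leaves above the cotyledons at spraying, done in a hood with a fixed nozzle. Control or injury was scored by eye after two weeks.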
smiles,measurement,setting,value
CCCSc1nnc(N(C)C(=O)NC)s1 [Example 69],pest or weed control at 2241.7 g/ha,Turnip (TP) [1]; 2 lb/acre,90%
same,pest or weed control at 4483.4 g/ha,Turnip (TP) [1]; 4 lb/acre,50%
same,pest or weed control at 8966.8 g/ha,Turnip (TP) [1]; 8 lb/acre,100%
same,pest or weed control at 4483.4 g/ha,Amaranth pigweed (PW) [2]; 4 lb/acre,100%
same,pest or weed control at 8966.8 g/ha,Amaranth pigweed (PW) [2]; 8 lb/acre,100%
same,pest or weed control at 2241.7 g/ha,Bean (BN) [3]; 2 lb/acre,0%
same,pest or weed control at 4483.4 g/ha,Bean (BN) [3]; 4 lb/acre,0%
same,pest or weed control at 8966.8 g/ha,Bean (BN) [3]; 8 lb/acre,100%
same,pest or weed control at 2241.7 g/ha,Barnyard grass (BG) [4]; 2 lb/acre,90%
same,pest or weed control at 4483.4 g/ha,Barnyard grass (BG) [4]; 4 lb/acre,80%
same,pest or weed control at 2241.7 g/ha,Johnson grass (JG) [5]; 2 lb/acre,20%
same,pest or weed control at 4483.4 g/ha,Johnson grass (JG) [5]; 4 lb/acre,40%
same,pest or weed control at 8966.8 g/ha,Johnson grass (JG) [5]; 8 lb/acre,70%
same,pest or weed control at 2241.7 g/ha,Cotton (CT) [6]; 2 lb/acre,50%
same,pest or weed control at 4483.4 g/ha,Cotton (CT) [6]; 4 lb/acre,30%
same,pest or weed control at 8966.8 g/ha,Cotton (CT) [6]; 8 lb/acre,90%
same,pest or weed control,Crabgrass (CG) [7]; 2 lb/acre,90%
same,pest or weed control at 4483.4 g/ha,Crabgrass (CG) [7]; 4 lb/acre,90%
same,pest or weed control at 8966.8 g/ha,Crabgrass (CG) [7]; 8 lb/acre,100%
same,pest or weed control at 2241.7 g/ha,Bean (BN) [8]; 2 lb/acre,100%
same,pest or weed control at 4483.4 g/ha,Bean (BN) [8]; 4 lb/acre,100%
same,pest or weed control at 8966.8 g/ha,Bean (BN) [8]; 8 lb/acre,100%
same,pest or weed control at 2241.7 g/ha,Barnyard grass (BG) [9]; 2 lb/acre,40%
same,pest or weed control at 4483.4 g/ha,Barnyard grass (BG) [9]; 4 lb/acre,60%
same,pest or weed control at 4483.4 g/ha,Amaranth pigweed (PW) [10]; 4 lb/acre,100%
same,pest or weed control at 8966.8 g/ha,Amaranth pigweed (PW) [10]; 8 lb/acre,100%
same,pest or weed control,Crabgrass (CG) [11]; 2 lb/acre,100%
same,pest or weed control at 4483.4 g/ha,Crabgrass (CG) [11]; 4 lb/acre,90%
same,pest or weed control at 8966.8 g/ha,Crabgrass (CG) [11]; 8 lb/acre,100%
same,pest or weed control at 2241.7 g/ha,Corn (CN) [12]; 2 lb/acre,30%
same,pest or weed control at 4483.4 g/ha,Corn (CN) [12]; 4 lb/acre,0%
same,pest or weed control at 8966.8 g/ha,Corn (CN) [12]; 8 lb/acre,50%
same,pest or weed control,Corn (CN) [13]; 2 lb/acre,80%
same,pest or weed control at 4483.4 g/ha,Corn (CN) [13]; 4 lb/acre,50%
same,pest or weed control at 8966.8 g/ha,Corn (CN) [13]; 8 lb/acre,100%
same,pest or weed control at 2241.7 g/ha,Cotton (CT) [14]; 2 lb/acre,100%
same,pest or weed control at 4483.4 g/ha,Cotton (CT) [14]; 4 lb/acre,100%
same,pest or weed control at 8966.8 g/ha,Cotton (CT) [14]; 8 lb/acre,100%
same,pest or weed control,Johnson grass (JG) [15]; 2 lb/acre,70%
same,pest or weed control at 4483.4 g/ha,Johnson grass (JG) [15]; 4 lb/acre,80%
same,pest or weed control at 8966.8 g/ha,Johnson grass (JG) [15]; 8 lb/acre,100%
same,pest or weed control at 2241.7 g/ha,Turnip (TP) [16]; 2 lb/acre,100%
same,pest or weed control at 4483.4 g/ha,Turnip (TP) [16]; 4 lb/acre,100%
same,pest or weed control at 8966.8 g/ha,Turnip (TP) [16]; 8 lb/acre,100%
